Test results published in ChEMBL document CHEMBL1124601, “Bifunctional antitumor compounds: synthesis and characterization of a Au(III)-streptonigrin complex with thiol-modulating properties” (J Med Chem, 1989).
≈ marks a conversion by molar mass, not a printed value.

Tests used:
P388 [1] = assay: In vitro concentration to inhibit the growth of P-388 leukemia cells; format: functional, cell-based; details: Mus musculus
P388 [2] = assay: Compound concentration was evaluated in vitro to inhibit the growth of P-388 leukemia cells; format: functional; details: Mus musculus, read-out: ID50 (the source's name)
[3] = The dissociation constant of the free compound in 1: 1 dioxane-water mixture.; format: ADME
[4] = The dissociation constant at pH 8 using potentiometric titration in 100 uM of compound in 0.15 M KCl at 25 degree Centigrade; format: ADME; details: 0.15 M KCl solution
[5] = The dissociation constant at pH 3 using potentiometric titration in 100 uM of compound in 0.15 M KCl at 25 degrees Centigrade; format: ADME; details: 0.15 M KCl solution

Compound	ID50 (P388 [1])	IC50 (P388 [2])	pKa [3]	pKa at 100 µM [4]	pKa at 100 µM [5]
5-Amino-6-(7-amino-6-methoxy-5,8-dioxo-5,8-dihydro-quinolin-2-yl)-4-(2-hydroxy-3,4-dimethoxy-phenyl)-3-methyl-pyridine-2-carboxylic acid; compound with Gold	0.05 µg/mL	–	–	–	–
COC1=C(N)C(=O)c2nc(-c3nc(C(=O)O)c(C)c(-c4ccc(OC)c(OC)c4O)c3N)ccc2C1=O [STREPTONIGRIN]	–	0.05 µg/mL (≈ 0.0987 µM)	6.5	6.6	4.7
